Like-named read-outs stand apart in the source and are kept apart here.

Assay [1] relates to SW48 colorectal cancer cells. Description: 2D antiproliferation on MSI-H SW48 cells, CTG, 5 days. The class given is cell-based. The following applies: for IC50 / inhibition at 38.15 pM / inhibition at 0.000152588 µM / inhibition at 0.000610352 µM / inhibition at 0.00244141 µM / inhibition at 0.00976562 µM / inhibition at 0.0390625 µM / inhibition at 0.15625 µM / inhibition at 0.625 µM / inhibition at […] / inhibition at 10 µM: Homo sapiens; for IC50: 120 h, SW48 MSI-H, 5 days; for inhibition at 38.15 pM: SW48, 0.038146973 nM; for inhibition at 0.000152588 µM: SW48, 0.152587891 nM; for inhibition at 0.000610352 µM: SW48, 0.610351563 nM; for inhibition at 0.00244141 µM: SW48, 2.44140625 nM; for inhibition at 0.00976562 µM: SW48, 9.765625 nM; for inhibition at 0.0390625 µM: SW48, 39.0625 nM; for inhibition at 0.15625 µM: SW48, 156.25 nM; for inhibition at 0.625 µM: SW48, 625 nM; for inhibition at […]: SW48, 2500 nM; for inhibition at 10 µM: SW48, 10000 nM. As to the method: The molecules of the present disclosure were tested for their anti-proliferative activity on MSI-H tumor cells.
SW48 colorectal cancer cells with MSI were cultured in a RMI1640 medium containing 10% FBS and 1% penicillin-streptomycin, and the mixture was cultured in a 37° C., 5% CO2 incubator. 40 μL of cell suspension was added to each well of a 384-well microplate. […] of compounds with different concentrations were added to each well using Echo, and the mixtures were cultured in a 37° C., 5% CO2 incubator for 5 days. 40 μL of CTG solution (Promega, Cat No. G7573) was added to each well and incubated in a 37° C., 5% CO2 incubator in the dark for 30 minutes. The luminescence value was read using an Envision multi-function microplate reader (Perkin Elmer, catalog number Envision 2104). The optical signal is proportional to the amount of ATP in the system, while the ATP content directly characterizes the number of viable cells in the system.

Assay [2] concerns HT-29 colorectal cancer cells. The assay is described as follows: 2D antiproliferation on MSS HT-29 cells, CTG, 5 days. The class given is cell-based. The following applies: Homo sapiens, 120 h, HT-29 MSS. As to the method: The molecules of the invention were tested for their anti-proliferative activities on MSS tumor cells.
HT-29 colorectal cancer cells with MSS were cultured in a McCoy's 5A medium containing 10% FBS and 1% penicillin-streptomycin in a 37° C., 5% CO2 constant temperature incubator. 40 μL of cell suspension was added to each well of a 384-well microplate. […] of compounds with different concentrations were added to each well using Echo. The mixtures were cultured in a 37° C., 5% CO2 constant temperature incubator for 5 days. 40 μL of CTG solution (Promega, Cat No. G7573) was added to each well, and the mixture was incubated in a 37° C., 5% CO2 constant temperature incubator for 30 minutes in the dark. The luminescence value was read using an Envision multi-function microplate reader (Perkin Elmer, catalog number Envision 2104). The optical signal is proportional to the amount of ATP in the system, while the ATP content directly characterizes the number of viable cells in the system.

The mark [3] stands for this setting: read-out: Average Value/Inhibition Rate.
Where [4] appears, read: read-out: Test 1/Inhibition Rate.
Setting [5] is: read-out: Test 2/Inhibition Rate.

Consider `CCc1c(N2CCN(C(=O)c3cc(C)ncn3)CC2)c(=O)n2nc(-c3cc4c(s3)COC4)nc2n1CC(=O)Nc1ccc(C(F)(F)F)cc1Cl` [A2], for which the IC50 in assay [1] was determined as 848 nM.
In turn, `CCc1c(N2CCN(C(=O)c3ncnc(C)c3O)CC2)c(=O)n2nc(-c3ccc(=O)n(C)c3)nc2n1CC(=O)Nc1ccc(C(F)(F)F)cc1Cl` [A3, reference compound] came in with an IC50 in assay [1] of 2000 nM.
For `CCc1c(N2CCN(C(=O)c3ncccc3O)CC2)c(=O)n2nc(C3=CCS(=O)(=O)CC3)nc2n1CC(=O)Nc1ccc(C(F)(F)F)cc1Cl` [P6], the values for the IC50 in assay [2] and in assay [1] were over 10000 nM and 2060 nM, respectively.
Take `CCc1c(N2CCN(C(=O)c3ncnc(C)c3O)CC2)c(=O)n2nc(-c3cc4cn[nH]c4s3)nc2n1CC(=O)Nc1ccc(C(F)(F)F)cc1Cl` [P19]: the IC50 in assay [2] was over 10000 nM. Also, in assay [1] (39 nM), the “inhibitory activity on SW48 cells” value is “high inhibitory activity”. Also, the midpoint of inhibition in assay [1], the IC50, lay at 82 nM. For the same molecule, in assay [1] (setting [3]), the inhibition at 38.15 pM is -0.502%, the inhibition at 0.000152588 µM is -1.21%, the inhibition at 0.000610352 µM came to 2.86% and the inhibition at 0.00244141 µM is -3.38%. For the same molecule, in assay [1] (setting [3]), the inhibition at 0.00976562 µM was -3.51%, the inhibition at 0.0390625 µM worked out at 1.51%, the inhibition at 0.15625 µM is 95.5% and the inhibition at 0.625 µM was found to be 97.6%. For the same molecule, in assay [1] (setting [3]), the inhibition at […] stood at 98.6% and the inhibition at 10 µM is 102%. Besides, in assay [1] (setting [4]), the inhibition at 38.15 pM is 2.13%, the inhibition at 0.000152588 µM was -2.38%, the inhibition at 0.000610352 µM amounted to 3.47% and the inhibition at 0.00244141 µM is -2.94%. In addition, in assay [1] (setting [4]), the inhibition at 0.00976562 µM is -1.53%, the inhibition at 0.0390625 µM was 3.47%, the inhibition at 0.15625 µM worked out at 96% and the inhibition at 0.625 µM was determined as 96.9%. Besides, in assay [1] (setting [4]), the inhibition at […] amounted to 99.4% and the inhibition at 10 µM came out at 103%. Also, in assay [1] (setting [5]), the inhibition at 38.15 pM was -3.13%, the inhibition at 0.000152588 µM is -0.0356%, the inhibition at 0.000610352 µM is 2.26% and the inhibition at 0.00244141 µM is -3.82%. Besides, in assay [1] (setting [5]), the inhibition at 0.00976562 µM was -5.5%, the inhibition at 0.0390625 µM was -0.452%, the inhibition at 0.15625 µM was 95% and the inhibition at 0.625 µM came to 98.4%. For the same molecule, in assay [1] (setting [5]), the inhibition at […] turned out to be 97.8% and the inhibition at 10 µM came to 102%.
Consider `CCc1c(N2CCN(C(=O)c3ncnc(C)c3O)CC2)c(=O)n2nc(-c3cc4c(s3)COC4)nc2n1CC(=O)Nc1ccc(Cl)cc1Cl` [P26], for which the IC50 in assay [2] is over 10000 nM; in assay [1], 41 nM.
Consider `CCc1ccc(NC(=O)Cn2c(CC)c(N3CCN(C(=O)c4ncnc(C)c4O)CC3)c(=O)n3nc(-c4cc5c(s4)COC5)nc23)c(C)c1` [P27], for which the IC50 was over 10000 nM in assay [2] and 46 nM in assay [1].
Consider `CCc1c(N2CCN(C(=O)c3ncccc3O)CC2)c(=O)n2nc(-c3cc4c(s3)COC4)nc2n1CC(=O)Nc1ccc(C(F)(F)F)cc1` [P28], for which the IC50 was over 10000 nM in assay [2] and 136 nM in assay [1].
As for `CCc1c(N2CCN(C(=O)c3ncnc(C)c3O)CC2)c(=O)n2nc(-c3cc4c(s3)COC4)nc2n1CC(=O)Nc1ccc(C(F)(F)F)c(F)c1C` [P30], the IC50 is over 10000 nM in assay [2] and 33 nM in assay [1].
For `CCc1c(N2CCN(C(=O)c3ncnc(C)c3O)CC2)c(=O)n2nc(-c3cc4c(s3)COC4)nc2n1CC(=O)Nc1cc(F)c(C(F)(F)F)cc1C` [P31], in that order: over 10000 nM and 49 nM.
As for `CCc1c(N2CCN(C(=O)c3ncnc(C)c3O)CC2)c(=O)n2nc(-c3sc(CO)nc3C)nc2n1CC(=O)Nc1ccc(C(F)(F)F)cc1Cl` [P34], the IC50 in assay [2] was over 10000 nM; in assay [1], 142 nM.
As to `CCc1c(N2CCN(C(=O)c3ncnc(C)c3O)CC2)c(=O)n2nc(-c3cnc(CO)s3)nc2n1CC(=O)Nc1ccc(C(F)(F)F)cc1Cl` [P35], the IC50 is over 10000 nM in assay [2] and 199 nM in assay [1].
Take `CCc1c(N2CCN(C(=O)c3ncnc(C)c3O)CC2)c(=O)n2nc(-c3cnc(CO)s3)nc2n1CC(=O)Nc1ccc(C(F)(F)F)c2ccsc12` [P36]: the values for the IC50 in assay [2] and in assay [1] were over 10000 nM and 561 nM, respectively.
As for `CCc1c(N2CCN(C(=O)c3ncnc(C)c3O)CC2)c(=O)n2nc(-c3ccn4nccc4c3)nc2n1CC(=O)Nc1ccc(C(F)(F)F)cc1Cl` [P37], the IC50 in assay [2] is over 10000 nM; in assay [1] it was 46 nM.
As for `CCc1c(N2CCN(C(=O)c3ncnc(C)c3O)CC2)c(=O)n2nc(-c3ccc4nccn4c3)nc2n1CC(=O)Nc1ccc(C(F)(F)F)cc1Cl` [P38], the IC50 in assay [2] is over 10000 nM; in assay [1] it was 82 nM.
For the molecule `CCc1c(N2CCN(C(=O)c3ncnc(C)c3O)CC2)c(=O)n2nc(-c3ccc4nncn4c3)nc2n1CC(=O)Nc1ccc(C(F)(F)F)cc1Cl` [P39], the IC50 in assay [2] and in assay [1] was over 10000 nM in each case.
As for `CCc1c(N2CCN(C(=O)c3ncnc(C)c3O)CC2)c(=O)n2nc(-c3cc4c(s3)COCC4)nc2n1CC(=O)Nc1ccc(C(F)(F)F)cc1Cl` [P40], the IC50 in assay [1] was 113 nM.
For the molecule `CCc1c(N2CCN(C(=O)c3ncnc(C)c3O)CC2)c(=O)n2nc(-c3ncc(CO)s3)nc2n1CC(=O)Nc1ccc(C(F)(F)F)cc1Cl` [P43], the IC50 in assay [1] turned out to be 593 nM.
For `CCc1c(N2CCN(C(=O)c3ncnc(C)c3O)CC2)c(=O)n2nc(-c3ccn4nccc4c3)nc2n1CC(=O)Nc1ccc(C(F)(F)F)cc1C` [P48], inhibition in assay [1] was half-maximal at 32 nM (IC50).
`CCc1c(N2CCN(C(=O)c3ncnc(C)c3O)CC2)c(=O)n2nc(-c3cnn(S(C)(=O)=O)c3)nc2n1CC(=O)Nc1ccc(C(F)(F)F)cc1Cl` [P49] came in with an IC50 in assay [1] of 574 nM.
Turning to `CCc1c(N2CCN(C(=O)c3ncnc(C)c3O)CC2)c(=O)n2nc(-c3cc4cn[nH]c4s3)nc2n1CC(=O)Nc1ccc(C(F)(F)F)cc1F` [P51], the IC50 in assay [1] was found to be 242 nM.
On to `CCc1c(N2CC3CC(C2)N3C(=O)c2ncnc(C)c2O)c(=O)n2nc(-c3cc4c(s3)COC4)nc2n1CC(=O)Nc1ccc(C(F)(F)F)cc1C` [P54], for which the midpoint of inhibition in assay [1], the IC50, lay at 2140 nM.
With `CCc1c(N2CCN(C(=O)c3ncnc(C)c3O)C3(CC3)C2)c(=O)n2nc(-c3cc4c(s3)COC4)nc2n1CC(=O)Nc1ccc(C(F)(F)F)cc1C` [P55], the concentration for half-maximal inhibition (IC50) in assay [1] was 672 nM.
For `CCc1c(N2CCN(C(=O)c3ncnc(C)c3O)CC2)c(=O)n2nc(-c3cc4c(s3)COC4)nc2n1CC(=O)Nc1ccc(C(F)(F)F)c2sccc12` [P56], the IC50 in assay [1] was found to be 36 nM.
In assay [1], `CCc1c(N2CCN(C(=O)c3ncnc(C)c3O)CC2)c(=O)n2nc(-c3cc4c(s3)COC4)nc2n1CC(=O)Nc1ccc(-c2cccnc2)cc1Cl` [P61] yielded an IC50 of 8850 nM.
The same measure, in the same setting: under `CCc1c(N2CCN(C(=O)c3ncnc(C)c3O)CC2)c(=O)n2nc(-c3cn4cncc4s3)nc2n1CC(=O)Nc1ccc(C(F)(F)F)cc1C` [P64] stands 530 nM; under `[2H]C([2H])([2H])c1ncnc(C(=O)N2CCN(c3c(CC)n(CC(=O)Nc4ccc(C(F)(F)F)cc4Cl)c4nc(-c5cc6c(s5)COC6)nn4c3=O)CC2)c1O` [P68], 28 nM; under `[2H]C1([2H])N(C(=O)c2ncnc(C)c2O)C([2H])([2H])C([2H])([2H])N(c2c(CC)n(CC(=O)Nc3ccc(C(F)(F)F)cc3C)c3nc(-c4cc5c(s4)COC5)nn3c2=O)C1([2H])[2H]` [P70], 34 nM.

What is called IC50 is the point on the concentration scale where inhibition reaches its midpoint.

For the origin of these results see patent publication US20260217732A1, “WRN INHIBITOR” (SUZHOU PUHE BIOPHARMA CO., LTD., priority 2022, published 2026).
